Among the data in ChEMBL document CHEMBL1201862, “PubChem BioAssay data set” (2004) are IC50, AC50 and EC50 values, retold here.

Calls of active or inactive are those of the source. Some results are limits rather than exact numbers.

Assay [1] concerns the target T1, Carboxy-terminal domain RNA polymerase II polypeptide A small phosphatase 1 (Homo sapiens, UniProt Q9GZU7).
T1 sequence (Q9GZU7 whole entry): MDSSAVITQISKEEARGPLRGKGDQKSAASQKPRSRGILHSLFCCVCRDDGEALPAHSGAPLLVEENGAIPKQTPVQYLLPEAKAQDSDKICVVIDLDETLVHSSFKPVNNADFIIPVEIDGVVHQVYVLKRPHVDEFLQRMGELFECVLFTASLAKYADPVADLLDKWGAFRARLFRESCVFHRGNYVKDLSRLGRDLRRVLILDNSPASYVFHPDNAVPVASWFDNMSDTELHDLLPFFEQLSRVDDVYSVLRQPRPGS
Briefly: CTDSP1 inhibitors, concentration-response, biochemical, absorbance readout, ultra-high-throughput screen actives (AID 540297). It is filed as functional.

Assay [2] is described as follows: Counterscreen for inhibitors of Trypanosoma brucei methionyl tRNA synthetase (MetRS): Luminescence-based cell-based high throughput dose response assay to identify compounds that are cytotoxic to Jurkat human T lymphocyte cells. Format: functional. (In general: The purpose of a counterscreen is to sort out artefacts and off-target activity.)
Assay [3] has as its target T2, Methionyl-tRNA synthetase, putative (Trypanosoma brucei brucei, UniProt Q38C91). Format: functional, Trypanosoma brucei brucei strain 927/4 GUTat10.1.
The target in assay [4] is T2, Methionyl-tRNA synthetase, putative. Format: functional, Trypanosoma brucei brucei strain 927/4 GUTat10.1. The source holds these as a separate data set.
Assay [5] has as its target T3, Sentrin-specific protease 8 (Homo sapiens, UniProt Q96LD8).
T3 sequence (Q96LD8 whole entry): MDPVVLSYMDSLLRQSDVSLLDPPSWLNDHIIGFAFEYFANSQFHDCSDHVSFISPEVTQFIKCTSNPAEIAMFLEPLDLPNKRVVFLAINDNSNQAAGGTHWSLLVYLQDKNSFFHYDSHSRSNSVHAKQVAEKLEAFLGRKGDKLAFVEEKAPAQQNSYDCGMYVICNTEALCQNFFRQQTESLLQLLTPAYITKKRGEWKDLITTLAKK
Format: functional.

Assay [6] addresses T3, Sentrin-specific protease 8. Format: functional. This is another data set of the same source.
The target of assay [7] is T4, Caspase-3 (Homo sapiens, UniProt P42574).
T4 sequence (P42574 whole entry): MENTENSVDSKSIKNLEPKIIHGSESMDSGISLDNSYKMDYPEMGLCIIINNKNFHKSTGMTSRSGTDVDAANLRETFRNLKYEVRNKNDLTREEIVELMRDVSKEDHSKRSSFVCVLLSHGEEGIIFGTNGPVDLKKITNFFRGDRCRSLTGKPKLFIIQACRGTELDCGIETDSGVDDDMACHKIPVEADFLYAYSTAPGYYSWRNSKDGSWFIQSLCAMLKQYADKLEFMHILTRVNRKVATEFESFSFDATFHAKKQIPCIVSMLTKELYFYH
The experiment in a line: Dose-response confirmation of uHTS inhibitor hits of Sentrin-Specific Protease 8 in a Caspase-3 Fluorescence assay. Format: functional.

A short description of assay [8]: HEK-293T viability loss after treatment – luminescence, T-cell screen hits, cytotoxicity control for TCR NF-kB inhibitor project, dose response (AID 489026).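 Note: cells exposed to compound about 14 hours before the viability readout.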 Format: functional, cell-based.
Assay [9] can be described thus: viability loss in HEK293T cells – cell-based, cherry-picks, cytotoxicity control for HIV Vif inhibitor project, dose response (AID 652208). It is filed as functional.
The nature of assay [10]: Luminescence Cell-Based Dose Retest to Confirm Inhibitors of Cancer Stem Cells. [Related pubchem assays (depositor defined):AID2717, AID2721]. Format: functional. The conditions noted are these: Homo sapiens.
The target of assay [11] is SWI/SNF-related matrix-associated actin-dependent regulator of chromatin subfamily A member 2 (Homo sapiens, UniProt P51531). The experiment in a line: Luminescence-based cell-based high throughput dose response assay to identify activators of the function of SWI/SNF related, matrix associated, actin dependent regulator of chromatin, subfamily a, member 2 (SMARCA2, BRM). It is filed as functional.
SWI/SNF-related matrix-associated actin-dependent regulator of chromatin subfamily A member 2, sequence (P51531 whole entry): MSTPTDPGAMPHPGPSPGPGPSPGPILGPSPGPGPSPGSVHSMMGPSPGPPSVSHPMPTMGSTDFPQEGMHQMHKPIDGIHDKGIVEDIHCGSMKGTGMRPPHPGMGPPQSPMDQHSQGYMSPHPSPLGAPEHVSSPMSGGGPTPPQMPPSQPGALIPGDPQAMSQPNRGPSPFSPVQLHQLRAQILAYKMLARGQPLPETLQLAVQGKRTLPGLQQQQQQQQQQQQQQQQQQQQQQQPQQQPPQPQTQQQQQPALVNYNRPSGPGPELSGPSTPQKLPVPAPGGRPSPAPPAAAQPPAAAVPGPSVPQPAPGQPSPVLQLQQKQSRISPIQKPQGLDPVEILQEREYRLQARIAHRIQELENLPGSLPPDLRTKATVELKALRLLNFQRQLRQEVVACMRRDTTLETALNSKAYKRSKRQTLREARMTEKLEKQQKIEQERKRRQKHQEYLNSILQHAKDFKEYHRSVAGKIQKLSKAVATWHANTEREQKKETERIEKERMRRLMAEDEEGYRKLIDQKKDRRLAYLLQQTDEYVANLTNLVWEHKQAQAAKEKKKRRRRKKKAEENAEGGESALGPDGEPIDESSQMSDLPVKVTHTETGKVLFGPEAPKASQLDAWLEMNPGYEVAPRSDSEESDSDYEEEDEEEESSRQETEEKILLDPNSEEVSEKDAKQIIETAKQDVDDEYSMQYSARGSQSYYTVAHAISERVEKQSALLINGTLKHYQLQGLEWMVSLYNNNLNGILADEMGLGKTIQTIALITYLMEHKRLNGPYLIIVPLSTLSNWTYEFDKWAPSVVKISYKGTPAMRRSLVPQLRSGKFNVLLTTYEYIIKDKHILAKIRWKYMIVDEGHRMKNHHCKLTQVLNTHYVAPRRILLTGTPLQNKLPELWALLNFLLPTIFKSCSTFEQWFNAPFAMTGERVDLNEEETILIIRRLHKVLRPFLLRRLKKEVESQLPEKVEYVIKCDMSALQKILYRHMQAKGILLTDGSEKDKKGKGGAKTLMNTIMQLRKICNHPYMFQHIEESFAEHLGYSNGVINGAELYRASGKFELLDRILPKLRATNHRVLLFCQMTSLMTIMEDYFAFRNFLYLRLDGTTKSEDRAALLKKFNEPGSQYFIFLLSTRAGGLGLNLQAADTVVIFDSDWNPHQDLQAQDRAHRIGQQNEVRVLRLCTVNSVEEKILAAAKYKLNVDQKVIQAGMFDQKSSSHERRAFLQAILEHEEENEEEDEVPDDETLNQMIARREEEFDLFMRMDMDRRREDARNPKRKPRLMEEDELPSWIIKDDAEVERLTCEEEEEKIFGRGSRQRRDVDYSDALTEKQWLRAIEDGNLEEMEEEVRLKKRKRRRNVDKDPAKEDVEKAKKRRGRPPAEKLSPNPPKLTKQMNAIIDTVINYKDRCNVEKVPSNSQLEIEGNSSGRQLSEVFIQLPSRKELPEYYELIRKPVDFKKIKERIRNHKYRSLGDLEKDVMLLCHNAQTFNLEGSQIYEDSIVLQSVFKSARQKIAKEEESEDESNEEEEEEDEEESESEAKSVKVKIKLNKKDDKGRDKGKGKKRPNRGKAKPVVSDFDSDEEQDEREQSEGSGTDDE

Assay [12] deals with INS1. Briefly: INS-1E survival protection against cytokine death – cell-based, luminescence, retest, dose response (AID 449756).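 Note: cell death triggered by IL-1 beta plus TNF-alpha plus IFN-gamma mixture; protective hits raise ATP signal compared with cytokine alone wells.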 Format: functional. The conditions noted are these: Rattus norvegicus.
Assay [13] relates to BJ. The experiment in a line: cells. It is filed as functional, cell-based. The conditions noted are these: Homo sapiens.
A short description of assay [14]: Counterscreen for activators of the function of SWI/SNF related, matrix associated, actin dependent regulator of chromatin, subfamily a, member 2 (SMARCA2, BRM): Luminescence-based cell-based high throughput dose response assay to identify non-selective compounds using the VP16 reporter assay. It is filed as functional.
Assay [15] is described as follows: DRD fibroblast viability loss – cell-based, non-viral oncogenic, luminescence, dose response (AID 1934). Format: functional. The conditions noted are these: Homo sapiens.
Assay [16] has as its target Heat shock protein HSP 90-alpha (Homo sapiens, UniProt P07900). It is filed as functional, organism-based.
Assay [17] concerns BJ. Briefly: growth inhibition of engineered Ras-driven BJ cells – cell-based, alamar blue fluorescence, cherrypicked samples, dose response (AID 2631).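 Note: confirmatory dose-response assay in RAS-dependent BJ fibroblasts engineered with TERT, LT and ST, with cytotoxicity read by fluorescence.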 The conditions noted are these: Homo sapiens. Format: functional. (In general: Resazurin is reduced to fluorescent resorufin, in cell work by metabolically active cells.)
For assay [18], the system named is BJ. Briefly: BJ-TERT-LT-ST fibroblast viability loss – cell-based, RAS-independent, luminescence, dose response (AID 1935).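 Note: BJ fibroblasts immortalized with TERT plus LT and ST oncogenes.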 Format: functional. The conditions noted are these: Homo sapiens.
The subject of assay [19] is BJ. The experiment in a line: BJ-TERT fibroblast viability loss – cell-based, RAS-independent, luminescence, dose response (AID 1933). Format: functional. The conditions noted are these: Homo sapiens.
The target in assay [20] is Paired box protein Pax-8 (Homo sapiens, UniProt Q06710). Briefly: PAX8 transcriptional activity inhibition in RMG-I – RMG-I cells, luciferase, cherry-pick, dose response (AID 687027).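 Note: luciferase reporter driven by Pax8 target thyroperoxidase promoter measured by SteadyGlo luminescence.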 It is filed as functional, cell-based.
Paired box protein Pax-8, sequence (Q06710 whole entry): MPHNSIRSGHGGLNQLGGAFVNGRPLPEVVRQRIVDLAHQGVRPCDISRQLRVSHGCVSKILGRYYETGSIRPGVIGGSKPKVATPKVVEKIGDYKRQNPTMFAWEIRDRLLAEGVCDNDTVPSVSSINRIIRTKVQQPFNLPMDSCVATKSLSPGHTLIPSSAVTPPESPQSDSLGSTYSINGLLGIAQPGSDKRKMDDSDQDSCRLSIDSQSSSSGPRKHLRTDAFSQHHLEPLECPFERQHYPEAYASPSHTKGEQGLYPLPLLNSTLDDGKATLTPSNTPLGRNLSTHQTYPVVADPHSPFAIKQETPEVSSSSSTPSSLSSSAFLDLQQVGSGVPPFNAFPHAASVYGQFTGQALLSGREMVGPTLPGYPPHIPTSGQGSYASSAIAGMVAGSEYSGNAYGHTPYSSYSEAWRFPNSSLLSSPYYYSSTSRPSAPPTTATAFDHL
The target in assay [21] is Protein S100-A4 (Homo sapiens, UniProt P26447). The experiment in a line: human S100A4 peptide interaction inhibition curves – biochemical, fluorescence polarization, cherry-picked hits, dose response (AID 687001). Format: functional. (Polarisation of emitted light reports the rotation of a fluorescent probe.)
Protein S100-A4, sequence (P26447 whole entry): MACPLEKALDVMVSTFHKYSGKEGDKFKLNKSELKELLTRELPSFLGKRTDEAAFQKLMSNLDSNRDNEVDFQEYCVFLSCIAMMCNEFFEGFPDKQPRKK
The nature of assay [22]: intracellular Trypanosoma cruzi inhibitors in host cells – cell-based, plate reader, cherry-pick samples, set 3, dose response (AID 651818).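 Note: compounds incubated with infected cells for about four days.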 It is filed as functional.
Assay [23] is described as follows: mouse fibroblast viability loss – cell-based, cherry-pick samples, set 2, cytotoxicity control for T. cruzi growth inhibitor project, dose response (AID 651817). It is filed as functional. The conditions noted are these: NIH3T3.

T2 sequence (Q38C91 whole entry): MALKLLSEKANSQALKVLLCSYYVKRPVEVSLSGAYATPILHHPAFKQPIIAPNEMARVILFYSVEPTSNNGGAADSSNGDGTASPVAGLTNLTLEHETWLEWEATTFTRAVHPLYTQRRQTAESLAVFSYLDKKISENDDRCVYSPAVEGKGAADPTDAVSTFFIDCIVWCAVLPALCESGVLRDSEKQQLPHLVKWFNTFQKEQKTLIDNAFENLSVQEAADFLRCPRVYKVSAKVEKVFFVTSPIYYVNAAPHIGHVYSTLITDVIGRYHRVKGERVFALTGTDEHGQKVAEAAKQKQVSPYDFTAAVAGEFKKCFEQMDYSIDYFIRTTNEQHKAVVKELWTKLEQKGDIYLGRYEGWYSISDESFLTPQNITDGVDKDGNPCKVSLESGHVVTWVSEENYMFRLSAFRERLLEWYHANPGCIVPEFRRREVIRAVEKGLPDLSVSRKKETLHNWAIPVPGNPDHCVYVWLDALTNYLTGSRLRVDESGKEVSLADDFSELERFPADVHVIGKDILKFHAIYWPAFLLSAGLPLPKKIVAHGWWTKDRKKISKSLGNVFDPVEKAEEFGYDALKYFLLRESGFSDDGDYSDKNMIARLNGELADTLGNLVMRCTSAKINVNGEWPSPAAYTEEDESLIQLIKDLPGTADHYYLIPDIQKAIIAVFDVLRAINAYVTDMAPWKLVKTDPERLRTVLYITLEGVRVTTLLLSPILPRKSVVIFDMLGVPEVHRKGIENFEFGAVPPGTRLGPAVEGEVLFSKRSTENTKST

By IC50 is commonly meant the concentration that gives 50% inhibition. On to `COc1ccc(CNC(=O)CSc2n[nH]c3c4cc(OC)ccc4nc-3n2)cc1`, for which the IC50 in assay [1] is 8.05 µM (active); in assay [2], 83.3 µM (inactive); in assay [3] it was 71.6 µM (inactive); in [4] it was 76.2 µM (inactive).
For `COc1cccc(-c2cc(C(=O)N3CCc4ccccc4C3)no2)c1`, the concentration for half-maximal inhibition (IC50) in assay [5] was 46 µM (active); in [6], 7.7 µM (active); in assay [7], 32 µM (active).
The term AC50 denotes the midpoint of the concentration-response curve, whichever way the signal moves. Regarding `CCCOCCOC(=O)c1[nH]c2c(c1C)C(=O)CC(c1cc(OC)ccc1OC)C2` (centres undefined), the IC50 in assay [8] is > 80 µM (inactive). The AC50 in [9] is > 52 µM (inactive).
As a reminder, the EC50 is the concentration giving half of the maximal effect. For `O=C1C=C(c2cccs2)C[C@H](c2ccccc2)[C@H]1n1nnc([N+](=O)[O-])n1`, the half-maximal activity concentration (AC50) was 0.835 µM (active) in assay [10], 4.33 µM (active) in [12] and 7.95 µM (active) in assay [16]. In addition, the EC50 was > 91.2 µM (inactive) in assay [11]; 9.02 µM (inconclusive) in assay [13]; > 91.2 µM (inactive) in assay [14]; 5.51 µM (inconclusive) in assay [15]; 0.242 µM (active) in assay [17]; 3.85 µM (inconclusive) in assay [18]. In assay [19], the concentration for a half-maximal effect (EC50) is 10.3 µM (inconclusive).
As for `COc1cccc2c1C(=O)c1c(O)c3c(c(O)c1C2=O)CC(O)(C(=O)CO)CC3OC1CC(N(C)C)C(O)C(C)O1` (centres undefined), the concentration at half-maximal activity (AC50) in assay [20] was 0.833 µM (active); in assay [16], 0.296 µM (active); in assay [21] it was 0.257 µM (active).
Regarding `Cc1ccc(S(=O)(=O)N(C)C[C@H]2Oc3ccc(NS(=O)(=O)c4ccc(Cl)cc4)cc3CC(=O)N([C@H](C)CO)C[C@H]2C)cc1`, the AC50 in assay [22] was 2.35 µM (active); in assay [23] it was 39 µM (inactive).
